Test system: pRb (Ser780)
Test: High content imaging of Rb phosphorylation (Ser780), MCF7
Assay type: cell-based
Conditions: Homo sapiens, mean ± Stdev n = 2
Procedure: Relative IC50/EC50 values were determined by curve fitting to a four parameter logistic equation: Y = bottom + ((top-bottom)/ (1+exp(HillSlope*(X – LnIC50)), where X is the natural log of dose/concentration, Y is response, decreasing as X increases, top and bottom are plateaus in the same units as Y, lnIC50 is the natural log of potency, in the same log units as X, and HillSlope measures the steepness of the curve. Data were plotted using GraphPad Prism.
As controls, cells were treated with 10 µM palbociclib or vehicle ( 0.2 % v/v DMSO). Additional details for cell-based assays are provided in the Supplemental Methods. […]
www.impactjournals.com/oncotarget/ Oncotarget Supplementary Materials
Preclinical characterization of abemaciclib in hormone receptor […]
METHODS High content imaging cell-based assays for monitoring phosphorylation of Rb (ser780), G1 arrest and
Enzyme kinetics of CDK6/cyclin D3 complexes Cells were fixed with para-formaldehyde and Rb phosphorylation at Serine 780 was detected using CDK6/cyclin D3 activity was measured by the a primary mouse anti-Rb (PS780) antibody followed phosphorylation of CTRF using [g-33P] […] Plates were read in an kinase buffer containing 68 mM Hepes at pH 7.5, 6.67 mM Acumen Explorer eX3 (TTP Labtech). […]
(EDTA) was used to determine the level of background evaluated by measuring PI signal using high content 33P in the absence of enzyme activity. […]

CCN1CCN(Cc2ccc(Nc3ncc(F)c(-c4cc(F)c5nc(C)n(C(C)C)c5c4)n3)nc2)CC1 [abemaciclib, Abemaciclib]
IC50: 13 ± 2 nM

Source: publication PMC5642494 (Oncotarget, 2017)
